The target of one experiment is Cannabinoid receptor 1 (Homo sapiens, UniProt P21554). In words: Binding affinity to CB1 receptor.
Another experiment has as its target Cannabinoid receptor 2 (Homo sapiens, UniProt P34972). In words: Binding affinity to CB2 receptor.

In general, Ki refers to a measure of affinity in units of concentration, obtained from inhibition or displacement.

Cannabinoid receptor 2, sequence (P34972 whole entry): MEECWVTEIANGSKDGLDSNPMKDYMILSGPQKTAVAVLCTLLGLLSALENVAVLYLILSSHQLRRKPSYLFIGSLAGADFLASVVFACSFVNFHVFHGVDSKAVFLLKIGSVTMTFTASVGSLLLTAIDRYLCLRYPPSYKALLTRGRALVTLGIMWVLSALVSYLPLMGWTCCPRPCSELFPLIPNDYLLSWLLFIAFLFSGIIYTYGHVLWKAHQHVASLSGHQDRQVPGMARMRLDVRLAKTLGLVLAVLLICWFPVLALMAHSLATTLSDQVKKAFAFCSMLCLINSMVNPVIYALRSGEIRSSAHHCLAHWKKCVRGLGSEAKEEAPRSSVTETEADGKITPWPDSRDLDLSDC
Cannabinoid receptor 1, sequence (P21554 whole entry): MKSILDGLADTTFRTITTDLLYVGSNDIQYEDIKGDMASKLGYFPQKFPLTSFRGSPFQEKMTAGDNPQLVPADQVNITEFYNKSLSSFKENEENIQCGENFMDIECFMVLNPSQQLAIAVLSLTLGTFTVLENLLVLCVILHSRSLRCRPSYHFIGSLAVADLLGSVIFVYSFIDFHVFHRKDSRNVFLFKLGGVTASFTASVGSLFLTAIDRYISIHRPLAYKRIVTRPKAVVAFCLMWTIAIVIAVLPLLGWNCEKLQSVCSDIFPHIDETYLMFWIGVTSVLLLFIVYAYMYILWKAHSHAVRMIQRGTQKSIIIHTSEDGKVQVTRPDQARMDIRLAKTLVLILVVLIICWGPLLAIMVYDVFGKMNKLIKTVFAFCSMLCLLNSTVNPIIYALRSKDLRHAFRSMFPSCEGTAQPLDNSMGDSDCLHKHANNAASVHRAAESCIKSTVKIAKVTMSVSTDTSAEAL

As to `CCCCCCC(=O)c1cc(O)c2c(c1)OC(C)(C)[C@@H]1CC=C(C)C[C@@H]21`, the Ki worked out at 21.7 nM at Cannabinoid receptor 1 and 83.7 nM at Cannabinoid receptor 2.

For the molecule `CCCCCCC1(c2cc(O)c3c(c2)OC(C)(C)[C@@H]2CC=C(C)C[C@@H]32)CC1(Cl)Cl` (stereo partly specified), the Ki at Cannabinoid receptor 1 worked out at 1.27 nM; on Cannabinoid receptor 2, 0.29 nM.

`C=C(C)C1CCC(C)=C[C@H]1c1c(O)cc(C2(CCCCCC)CC2)cc1O` (stereo partly specified): the inhibition constant Ki stood at 58.7 nM at Cannabinoid receptor 1 and 99.2 nM at Cannabinoid receptor 2.

Turning to `CCCC(C)(C)c1cc(O)c2c(c1)OC(C)(C)[C@@H]1CC=C(C)C[C@@H]21`, the affinity on Cannabinoid receptor 1 corresponds to a Ki of 10.9 nM.

Turning to `CC1=CC[C@@H]2[C@@H](C1)c1c(O)cc(-c3cccc4ccccc34)cc1OC2(C)C`, the inhibition constant (Ki) on Cannabinoid receptor 1 came to 11.7 nM; on Cannabinoid receptor 2, 9.39 nM.

With `C=C(C)C1CCC(C)=C[C@H]1c1c(O)cc(C2(CCCCCC)CC2(Br)Br)cc1O` (stereo partly specified), the inhibitory constant (Ki) was 189 nM on Cannabinoid receptor 1 and 63.3 nM on Cannabinoid receptor 2.

Regarding `CCCCCCC1(c2cc(O)c3c(c2)OC(C)(C)[C@@H]2CC=C(C)C[C@@H]32)CC1(Br)Br` (stereo partly specified), the inhibition constant Ki on Cannabinoid receptor 1 was 0.71 nM; on Cannabinoid receptor 2, 1.03 nM.

On to `CCCCCCC1(c2cc(O)c3c(c2)OC(C)(C)[C@@H]2CC=C(C)C[C@@H]32)SC(C)C(C)S1` (stereo partly specified), for which the Ki on Cannabinoid receptor 1 amounted to 32.3 nM; on Cannabinoid receptor 2 it was 19.7 nM.

On to `CCCCCCC1(c2cc(O)c3c(c2)OC(C)(C)[C@@H]2CC=C(C)C[C@@H]32)CC1`, for which the Ki stood at 0.44 nM at Cannabinoid receptor 1 and 0.86 nM on Cannabinoid receptor 2.

`CCCCCCCc1cc(O)c2c(c1)OC(C)(C)[C@@H]1CC=C(C)C[C@@H]21`: the Ki at Cannabinoid receptor 1 is 22 nM.

For `CCCCCCC1(c2cc(O)c3c(c2)OC(C)(C)[C@@H]2CC=C(C)C[C@@H]32)CCCC1`, the inhibitory constant (Ki) on Cannabinoid receptor 1 stood at 0.45 nM; at Cannabinoid receptor 2 it was 1.92 nM.

At Cannabinoid receptor 1, `CCCCC(C)(C)c1cc(O)c2c(c1)OC(C)(C)[C@@H]1CC=C(C)C[C@@H]21` returned a Ki of 3.9 nM.

As to `C=C(C)C1CCC(C)=C[C@H]1c1c(O)cc(C2(CCCCCC)SCCS2)cc1O` (stereo partly specified), the inhibition constant Ki at Cannabinoid receptor 1 was 136 nM; on Cannabinoid receptor 2 it was 50.4 nM.

`C=C(C)C1CCC(C)=C[C@H]1c1c(O)cc(-c2ccc(C)cc2)cc1O` (stereo partly specified): the Ki on Cannabinoid receptor 1 came to 638 nM; on Cannabinoid receptor 2 it was 374 nM.

With `CCCCCCC1(c2cc(O)c3c(c2)OC(C)(C)[C@@H]2CC=C(C)C[C@@H]32)OCCO1`, the values for the Ki at Cannabinoid receptor 1 and at Cannabinoid receptor 2 were 0.52 nM and 0.22 nM, respectively.

Consider `CC1=CC[C@@H]2[C@@H](C1)c1c(O)cc(C3SCCS3)cc1OC2(C)C`, for which the results for the Ki at Cannabinoid receptor 1 and at Cannabinoid receptor 2 were 168 nM and 103 nM, respectively.

Consider `CC1=CC[C@@H]2[C@@H](C1)c1c(O)cc(C(C)(C)C)cc1OC2(C)C`, for which the Ki on Cannabinoid receptor 1 came out at 14 nM.

Turning to `C=C(C)C1CCC(C)=C[C@H]1c1c(O)cc(C2(C#N)CCCCC2)cc1O` (stereo partly specified), the inhibition constant Ki at Cannabinoid receptor 1 came out at 319 nM; on Cannabinoid receptor 2, 111 nM.

`CCCCCCC1(c2cc(O)c3c(c2)OC(C)(C)[C@@H]2CC=C(C)C[C@@H]32)SCCS1`: the inhibition constant Ki on Cannabinoid receptor 1 came out at 0.32 nM; on Cannabinoid receptor 2, 0.52 nM.

As to `C=C(CCCCCC)c1cc(O)c2c(c1)OC(C)(C)[C@@H]1CC=C(C)C[C@@H]21`, the Ki on Cannabinoid receptor 1 came to 2.17 nM; on Cannabinoid receptor 2, 3.3 nM.

Regarding `CCCCCCC1(c2cc(O)c3c(c2)OC(C)(C)[C@@H]2CC=C(C)C[C@@H]32)Sc2ccccc2S1`, the Ki on Cannabinoid receptor 1 turned out to be 56.9 nM; on Cannabinoid receptor 2 it was 257 nM.

With `CC1=CC[C@@H]2[C@@H](C1)c1c(O)cc(C(C)(C)C3CCCC3)cc1OC2(C)C`, the figures for the inhibition constant (Ki) on Cannabinoid receptor 1 and on Cannabinoid receptor 2 were 0.34 nM and 0.39 nM, respectively.

Regarding `CC1=CC[C@@H]2[C@@H](C1)c1c(O)cc(C(C)(C)C3CCCCCC3)cc1OC2(C)C`, the Ki on Cannabinoid receptor 1 was 0.94 nM; on Cannabinoid receptor 2 it was 0.22 nM.

In the case of `C=C(C)C1CCC(C)=C[C@H]1c1c(O)cc(C2(CCCCCC)CC2(Cl)Cl)cc1O` (stereo partly specified), the results for the inhibitory constant (Ki) on Cannabinoid receptor 1 and at Cannabinoid receptor 2 were 666 nM and 32.9 nM, respectively.

Turning to `CC1=CC[C@@H]2[C@@H](C1)c1c(O)cc(CCCCCN=[N+]=[N-])cc1OC2(C)C`, the inhibition constant (Ki) on Cannabinoid receptor 1 stood at 19 nM.

On to `CCCc1ccc(-c2cc(O)c3c(c2)OC(C)(C)[C@@H]2CC=C(C)C[C@@H]32)cc1`, for which the Ki on Cannabinoid receptor 1 worked out at 57.8 nM; on Cannabinoid receptor 2, 108 nM.

Consider `CC1=CC[C@@H]2[C@@H](C1)c1c(O)cc(C3(C#N)CCCCC3)cc1OC2(C)C`, for which the Ki on Cannabinoid receptor 1 stood at 8.26 nM; on Cannabinoid receptor 2 it was 3.86 nM.

As for `CC1=CC[C@@H]2[C@@H](C1)c1c(O)cc(C(C)(C)CCCCC#N)cc1OC2(C)C`, the Ki on Cannabinoid receptor 1 is 1.75 nM; on Cannabinoid receptor 2, 1.1 nM.

Consider `CC1=CC[C@@H]2[C@@H](C1)c1c(O)cc(C34CC5CC(CC(C5)C3)C4)cc1OC2(C)C`, for which the Ki on Cannabinoid receptor 1 stood at 6.8 nM; at Cannabinoid receptor 2, 52 nM.

On Cannabinoid receptor 1, `CCCCCC(C)(C)c1cc(O)c2c(c1)OC(C)(C)[C@@H]1CC=C(C)C[C@@H]21` displayed a Ki of 2.7 nM.

As to `CC1=CC[C@@H]2[C@@H](C1)c1c(O)cc(C3(C#N)CCCC3)cc1OC2(C)C`, the Ki on Cannabinoid receptor 1 was found to be 27.9 nM; at Cannabinoid receptor 2 it was 25.2 nM.

On to `C=C(C)C1CCC(C)=C[C@H]1c1c(O)cc(-c2cccc3ccccc23)cc1O` (stereo partly specified), for which the inhibitory constant (Ki) is 754 nM at Cannabinoid receptor 1 and 222 nM at Cannabinoid receptor 2.

On to `CC1=CC[C@@H]2[C@@H](C1)c1c(O)cc(C(C)(C)CCCCOc3ccc(C#N)cc3)cc1OC2(C)C`, for which the Ki at Cannabinoid receptor 1 came to 1.5 nM; on Cannabinoid receptor 2, 1.1 nM.

Regarding `C=C(C)C1CCC(C)=C[C@H]1c1c(O)cc(C2(C#N)CCCC2)cc1O` (stereo partly specified), the values for the inhibition constant Ki on Cannabinoid receptor 1 and on Cannabinoid receptor 2 were 255 nM and 105 nM, respectively.

Consider `CC1=CC[C@@H]2[C@@H](C1)c1c(O)cc(Oc3ccccc3)cc1OC2(C)C`, for which the figures for the inhibition constant Ki at Cannabinoid receptor 1 and on Cannabinoid receptor 2 were 297 nM and 23.6 nM, respectively.

In the case of `CC1=CC[C@@H]2[C@@H](C1)c1c(O)cc(-c3ccc(C)cc3)cc1OC2(C)C`, the inhibition constant (Ki) on Cannabinoid receptor 1 came to 95.5 nM; at Cannabinoid receptor 2, 71.8 nM.

As to `CC1=CC[C@@H]2[C@@H](C1)c1c(O)cc(C(C)(C)CCCCCC#N)cc1OC2(C)C`, the results for the Ki at Cannabinoid receptor 1 and on Cannabinoid receptor 2 were 0.2 nM and 2.9 nM, respectively.

`CC1=CC[C@@H]2[C@@H](C1)c1c(O)cc(C(C)(C)CCCCBr)cc1OC2(C)C`: the inhibition constant Ki at Cannabinoid receptor 1 came to 0.43 nM.

As to `CCCCCCC1(c2cc(O)c3c(c2)OC(C)(C)[C@@H]2CC=C(C)C[C@@H]32)SCCCS1`, the Ki at Cannabinoid receptor 1 came to 1.8 nM; at Cannabinoid receptor 2, 3.6 nM.

Take `CC1=CC[C@@H]2[C@@H](C1)c1c(O)cc(C(C)(C)CCCCC(=O)NN3CCCCC3)cc1OC2(C)C`: the inhibitory constant (Ki) was 4.5 nM on Cannabinoid receptor 1 and 3.2 nM on Cannabinoid receptor 2.

In turn, `CC1=CC[C@@H]2[C@@H](C1)c1c(O)cc(CCCC(C)C)cc1OC2(C)C` displayed an inhibitory constant (Ki) on Cannabinoid receptor 1 of 141 nM.

In the case of `CCc1ccc(-c2cc(O)c3c(c2)OC(C)(C)[C@@H]2CC=C(C)C[C@@H]32)cc1`, the inhibition constant (Ki) on Cannabinoid receptor 1 came to 119 nM; at Cannabinoid receptor 2, 51.7 nM.

The values are drawn from ChEMBL document CHEMBL1140633, “The application of 3D-QSAR studies for novel cannabinoid ligands substituted at the C1' position of the alkyl side chain on the structural requirements for binding to cannabinoid receptors CB1 and CB2” (J Med Chem, 2007).
